Measurements from US20050043262A1, “Novel specific inhibitor of the cyclin kinase inhibitor p21Waf1/Cip1 and methods of using the inhibitor” (priority 2000, published 2005).

Tests used:
MCF7 cells = experiment: Nuclear morphology (Hoechst 33258) in MCF7 cells; type: cell-based, human; details: serum stimulated 24 hours after lipofection
Protocol: Evaluation of Nuclear Morphology: Cells were seeded in 6-well culture dishes and treated with ODNs as described. The cells were then immersed in methanol for at least 10 min. Cells were stained in 1 μg/ml Hoechst 33258 in water with 1% nonfat dry milk. After staining for 8-10 min, the cells were rinsed in water and dried completely. Nuclear morphology was visually evaluated by fluorescence microscopy.
Apoptosis is the end result of an elaborate cascade of molecular events that ultimately result in programmed cell death; thus, a variety of tests are generally used to determine whether apoptosis is occurring. The methods to study apoptosis were employed: (a) assessment of nuclear morphology; (b) PARP cleavage; and (c) caspase-3 cleavage. Serum-starved cells were transfected with antisense p21 ODN or the control ODN, fixed, stained with Hoechst 33258, and examined under UV light. MCF7 and T47D cells were grown to confluence, serum starved for 24 hours, and lipofected with antisense p21 or control ODN. The cells were subsequently serum stimulated for another 24 hours, fixed, stained with Hoechst 33258, and examined under UV light at X400.

A10 VSM cells = experiment: [3H]thymidine incorporation (DNA synthesis) in A10 VSM cells; type: cell-based, rat
cyclin D1/cdk 4 = experiment: Cyclin D1 immunoprecipitation / cdk 4 immunoblot in A10 VSM cells; type: cell-based, rat; details: PDGF-BB 30 ng/ml, all times
Protocol: Cells were transfected with p21^Waf1/Cip1 antisense (SEQ. ID NO.:1) or sense oligodeoxynucleotide (SEQ. ID NO.:2), allowed to grow overnight in serum-free media. After overnight incubation in serum-free medium, the cells were stimulated with PDGF-BB (30 ng/ml) for the times indicated. The cells were subsequently immunoprecipitated with either cyclin D1 or cyclin E and immunoblotted with cdk 4 or cdk 2, respectively.

α-actin = experiment: alpha-actin level by Western blot in A431 cells; type: cell-based, human; details: 200 nM oligodeoxynucleotide
Protocol: Western blots: Cells were grown to confluence in 6 cm culture dishes and serum deprived. After transfection and or treatment with appropriate agonist, the cells were washed with phosphate-buffered saline and lysed in lysis buffer and the supernatant was Western blotted as described (Weiss and Nuccitelli, 1992 J. Biol. Chem., 267, p. 5608-5613).
PMA is a potent inducer of p21^Waf1/Cip1 in a variety of different cell lines (Huang et al., 1995 Proc. Natl. Acad. Sci. US.A., 92, p. 4793-4797; Michieli et al., 1994 Cancer Res., 54, p. 3391-3395) and was employed to examine p21^Waf1/Cip1 levels after antisense transfection and confirm efficacy of translation to attenuate p21^Waf1/Cip1 levels. A431 cells were transfected with 200 nM antisense p21^Waf1/Cip1 (SEQ. ID NO.:1) or sense p21^Waf1/Cip1 oligodeoxynucleotide (SEQ. ID NO.:2). After overnight incubation in serum-free medium, the cells were stimulated with PMA (100 ng/ml) for the times indicated, lysed, and the lysates were Western blotted with p21^Waf1/Cip1 or α-actin antibody.

VSM cells = experiment: Apoptosis by Hoechst 33258 staining in VSM cells; type: cell-based, rat; details: 24 hours after transfection
Protocol: FIG. 20A-D show how the antisense oligonucleotide to p21 induces VSM cell apoptosis, as described in Example III, infra. VSM cells were grown on glass cover slips and transfected with (A,B) random sequence control oligonucleotide to p21 or (C,D) antisense oligonucleotide. 24 hours later, the cells were fixed and stained in situ with Hoechst 33258. Representative microscopic fields were photographed under (A,C) visual or (B,D) UV light at 40×.
Apoptosis assays: Cells were grown on collagen-coated coverslips, and transfected as stated above. 16-24 hours after transfection, cells were exposed to 12 Gy dose of γ-irradiation or 0.5 μM wortmannin. 24 hours later, cells were fixed in 3.7% formaldehyde (diluted in PBS) for 10 minutes. The cells were rinsed with cold PBS and permeabilized using 0.1% Triton X-100 (diluted in deionized water) for 5 minutes. Rinsed again with PBS, the cells on the coverslips were submerged in Hoechst Staining solution (3.0 μl in 37.5 ml deionized water) for 5 minutes. Cells were given a final three rinses with cold PBS before being mounted in polyvinyl alcohol mounting medium. Cell nuclei were visualized using a ZEISS WL Microscope and photographed under 40×.
As another measure of apoptosis, transfected cells fixed and stained with Hoechst 33258 were examined.

fibronectin = experiment: Fibronectin production and secretion (immunoprecipitation/immunoblot); type: cell-based, rat; details: VSM cells, 400 nM, TGF-β 0.1 to 10 ng/ml
Protocol: Immunoprecipitations: VSM cells were grown to confluence. After incubation under appropriate conditions, the cells were washed with ice-cold phosphate-buffered saline and immediately lysed in lysis buffer (20 mM Tris [pH7.5], 150 mM NaCl, 1 mM EDTA, 1 mM EGTA, 1% Triton X-100, 2.5 mM sodium pyrophosphate, 1 mM β-glycerolphosphate, 1 mM Na3VO4, 1 μg/ml Leupeptin, 1 mM PMSF) at 4° C. The cells were scraped off with a rubber spatula and the insoluble material removed by centrifuging at 10,000× g for 10 min at 4° C. Protein concentration was determined by A595, and lysates containing equal amounts of protein were incubated with […] anti-fibronectin antibody at 4° C. overnight. Protein A-Sepharose beads were added and the resulting mixture was incubated for an additional 2 hours at 4° C. The beads were centrifuged in a microfuge for 20 sec, and the pellet was washed 3 times with cold lysis buffer. The supernatant was decanted, gel loading buffer was added to the precipitate, and the solution was boiled for 5 min, and centrifuged. The supernatant was electrophoresed on a 7.5% SDS-polyacrylamide gel with equal volumes of sample per lane. The proteins were electrophoretically transferred to nitrocellulose and probed with fibronectin antibody.
The p21 influences on matrix protein secretion in VSM cells were determined. […]

Substance | nuclear morphology (MCF7 cells) | PDGF-stimulated DNA synthesis (A10 VSM cells; A10 VSM cells, 200 nM oligodeoxynucleotide lipofected, PDGF-BB 30 ng/ml 18 hours) | DNA synthesis relative to control oligodeoxynucleotide (A10 VSM cells; A10 VSM cells, 10% serum) | PDGF-stimulated DNA synthesis, dose/response (A10 VSM cells; A10 VSM cells, increasing oligodeoxynucleotide concentration up to 200 nM) | effects of irradiation on cell cycle arrest (DNA synthesis) (A10 VSM cells; VSM cells, 1 to 12 Gy, maximum potentiation at 8 Gy) | potentiation of irradiation effect at 12 Gy (A10 VSM cells; VSM cells, 12 Gy) | potentiation of Adriamycin growth inhibition (A10 VSM cells; VSM cells, 1000 to 2000 ng/ml Adriamycin) | cell growth (DNA synthesis) stimulated with PDGF-BB and serum (A10 VSM cells; VSM cells, similar oligodeoxynucleotide concentrations (FIG. 9d)) | DNA synthesis in non-irradiated cells (A10 VSM cells; confluent VSM cells in serum-containing medium) | association of cyclin D1 and cdk 4 (cyclin D1/cdk 4) | levels of α-actin (α-actin) | apoptotic changes (Hoechst 33258) (VSM cells) | TGF-β-mediated fibronectin production and secretion (fibronectin)
5′-ATC-CCC-AGC-CGG-TTC-TGA-CAT-3′ (antisense ATCCCCAGCCGGTTCTGACAT; listed as DNA, chemistry not fully specified) [antisense p21 ODN] | nuclear morphological changes consistent with apoptosis | – | – | – | – | – | – | – | – | – | – | – | –
5′-GACATCACCAGGATCGGACAT-3′ | – | Significant inhibition | markedly inhibited | inhibition of DNA synthesis with increasing concentration | potentiated at higher doses of radiation | did not reach statistical significance | significant potentiation | inhibited | marked inhibition | marked decrease | not altered | extensive apoptotic changes | decreases
